Measurements published in the NIST ThermoML archive (doi:10.1016/j.jct.2013.07.008).
Numbers after ± are expanded uncertainties.

How the values were obtained:
[1] = refractive index (Na D-line) (dimensionless); settings: 101.33 kPa, Liquid, Standard Abbe refractometry
[2] = for mass density: 101.33 kPa, Buoyancy - hydrostatic balance; for mass density / surface tension liquid-gas: Liquid; for surface tension liquid-gas: Maximal bubble pressure; for Glass transition temperature: DTA

Structure (SMILES)	refractive index ([1]; 288.15 K)	refractive index ([1]; 293.15 K)	refractive index ([1]; 303.15 K)	refractive index ([1]; 308.15 K)	refractive index ([1]; 313.15 K)	refractive index ([1]; 318.15 K)	refractive index ([1]; 323.15 K)	refractive index ([1]; 328.15 K)	refractive index ([1]; 333.15 K)	mass density ([2]; 288.15 K) [kg/m3]	surface tension liquid-gas ([2]; 288.15 K) [mN/m]	mass density ([2]; 293.15 K) [kg/m3]	surface tension liquid-gas ([2]; 293.15 K) [mN/m]	mass density ([2]; 303.15 K) [kg/m3]	surface tension liquid-gas ([2]; 303.15 K) [mN/m]	mass density ([2]; 308.15 K) [kg/m3]	surface tension liquid-gas ([2]; 308.15 K) [mN/m]	mass density ([2]; 313.15 K) [kg/m3]	surface tension liquid-gas ([2]; 313.15 K) [mN/m]	mass density ([2]; 318.15 K) [kg/m3]	further results
CC(O)C(=O)[O-].CCn1cc[n+](C)c1 [1-ethyl-3-methylimidazolium lactate]	1.5026 ± 0.0005	1.5014 ± 0.0005	1.4987 ± 0.0005	1.4977 ± 0.0005	1.4961 ± 0.0005	1.495 ± 0.0005	1.4936 ± 0.0005	1.4926 ± 0.0005	1.4913 ± 0.0005	1192.9 ± 1.2	49.5 ± 0.6	1189.8 ± 1.1	49.2 ± 0.6	1183.4 ± 1.1	48.4 ± 0.6	1180.1 ± 1.1	48 ± 0.6	1176.4 ± 1.1	47.7 ± 0.6	1173.4 ± 1.1	surface tension liquid-gas ([2]; 318.15 K): 47.4 ± 0.6 mN/m; mass density ([2]; 323.15 K): 1170.4 ± 1.1 kg/m3; surface tension liquid-gas ([2]; 323.15 K): 47 ± 0.6 mN/m; mass density ([2]; 328.15 K): 1167.1 ± 1.1 kg/m3; surface tension liquid-gas ([2]; 328.15 K): 46.6 ± 0.6 mN/m; mass density ([2]; 333.15 K): 1163.6 ± 1.1 kg/m3; surface tension liquid-gas ([2]; 333.15 K): 46.3 ± 0.6 mN/m; Glass transition temperature [2]: -81.30 ± 2 °C
CC(O)C(=O)[O-].CCCCCn1cc[n+](C)c1 [1-pentyl-3-methylimidazolium lactate]	1.494 ± 0.0005	1.4928 ± 0.0005	1.4901 ± 0.0005	1.4891 ± 0.0005	1.4875 ± 0.0005	1.4864 ± 0.0005	1.485 ± 0.0005	1.4841 ± 0.0005	1.4827 ± 0.0005	1112.6 ± 1	43.1 ± 0.5	1109 ± 1	42.7 ± 0.5	1102.7 ± 1	42 ± 0.5	1099.4 ± 1	41.5 ± 0.5	1095.3 ± 1	41.2 ± 0.5	1092.9 ± 1	surface tension liquid-gas ([2]; 318.15 K): 40.9 ± 0.5 mN/m; mass density ([2]; 323.15 K): 1089.9 ± 1 kg/m3; surface tension liquid-gas ([2]; 323.15 K): 40.5 ± 0.5 mN/m; mass density ([2]; 328.15 K): 1086.4 ± 1 kg/m3; surface tension liquid-gas ([2]; 328.15 K): 40.1 ± 0.5 mN/m; mass density ([2]; 333.15 K): 1083.3 ± 1 kg/m3; surface tension liquid-gas ([2]; 333.15 K): 39.8 ± 0.5 mN/m; Glass transition temperature [2]: -78.20 ± 2 °C
